Source: patent publication US8669289B2, “Methods and compositions relating to hematologic malignancies” (The Jackson Laboratory, priority 2009, dated 2014)
Entries after “also recorded” stand apart in the source; their conditions may differ.

Key:
Alox5 gene = assay: Gene expression in LSCs of CML mice with imatinib treatment (DNA microarray, RT-PCR); format: in vivo; settings: imatinib 150 mg/kg every 4 hours, 5 doses from day 13 post BMT
Description: (§1) Leukemic stem cells in CML (CML-SCs) are insensitive to BCR-ABL kinase inhibitors (Graham et al., 2002). A bone marrow transplantation (BMT) mouse model of CML is used as an assay system, in which bone marrow cells from donor mice pretreated with 5-fluorouracil (5-FU) and transduced with BCR-ABL result in development of CML in recipient mice (Li et al., 1999). Bone marrow cells from C57BL/6 (B6) mice are transduced with retrovirus containing BCR-ABL/GFP or GFP alone under conditions for induction of CML, followed by transplantation of the transduced cells into B6 recipient mice.
Fourteen days after BMT, bone marrow cells are isolated and subsequently sorted by FACS for LSCs (GFP^+Lin^−c-Kit^+Sca-1^+) (Hu et al., 2006). Total RNA is isolated from these BCR-ABL-expressing LSCs or from the GFP^+Lin^−c-Kit^+Sca-1^+ cells that only express GFP, and DNA microarray analysis is carried out to compare gene expression between BCR-ABL-expressing and non-BCR-ABL expressing Lin^−c-Kit^+Sca-1^+ cells.

[1] = test system: GFP+Gr-1+ myeloid leukemia cells; assay: FACS of GFP+Gr-1+ myeloid leukemia cells in peripheral blood and bone marrow of treated CML mice; format: in vivo
Description: as §1
(§2) Water is used as placebo.

Alox5 = molecular target: T1, Alox5 (Mus musculus, UniProt P48999); assay: Plasma level of LTB4 in CML mice; settings: compared to placebo-treated CML mice
T1 sequence (P48999 1-674): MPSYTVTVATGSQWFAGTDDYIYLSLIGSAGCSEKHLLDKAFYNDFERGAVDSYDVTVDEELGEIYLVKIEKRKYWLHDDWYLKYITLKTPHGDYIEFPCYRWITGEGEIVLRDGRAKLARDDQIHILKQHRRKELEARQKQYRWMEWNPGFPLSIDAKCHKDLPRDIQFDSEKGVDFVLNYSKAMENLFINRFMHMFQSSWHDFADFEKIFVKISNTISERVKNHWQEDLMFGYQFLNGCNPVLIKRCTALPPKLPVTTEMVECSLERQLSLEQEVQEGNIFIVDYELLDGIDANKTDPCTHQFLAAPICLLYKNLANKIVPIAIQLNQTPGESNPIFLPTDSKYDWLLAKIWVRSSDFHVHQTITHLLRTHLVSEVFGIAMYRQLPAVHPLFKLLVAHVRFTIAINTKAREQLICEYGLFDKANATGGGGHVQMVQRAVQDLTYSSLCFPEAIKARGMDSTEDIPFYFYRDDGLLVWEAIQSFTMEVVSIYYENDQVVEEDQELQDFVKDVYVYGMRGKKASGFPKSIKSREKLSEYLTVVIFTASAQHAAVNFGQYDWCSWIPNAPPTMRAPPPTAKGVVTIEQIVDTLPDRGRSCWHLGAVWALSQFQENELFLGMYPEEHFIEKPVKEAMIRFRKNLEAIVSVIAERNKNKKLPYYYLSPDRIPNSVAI

LSCs = assay: FACS of LT-LSCs and ST-LSCs/MPP cells in bone marrow of zileuton-treated CML mice; format: in vivo; settings: 300 mg/kg twice a day from day 8; days 20 and 90 post BMT
Protocol: Cell populations affected by Alox5 deficiency are determined using FACS analysis. BCR-ABL-transduced Alox5^−/− bone marrow cells are transplanted into recipient mice (n=4) to induce CML, and bone marrow cells from these mice are analyzed by FACS for percentages of total HSCs (Lin^−c-Kit^+Sca-1^+), LT-HSCs (Lin^−c-Kit^+Sca-1^+CD34^−), and ST-HSCs/MPP cells (Lin^−c-Kit^+Sca-1^+CD34^+).
(§3) Recipients of BCR-ABL-transduced wild type bone marrow cells are treated with zileuton (300 mg/kg of body weight, twice a day) beginning at 8 days after BMT. […] At days 20 and 90 post BMT (induction of CML), FACS analysis is performed.

[2] = test system: mice with BCR-ABL-induced CML; assay: Leukemia cell infiltration to lungs and spleens of CML mice; format: in vivo; settings: zileuton-treated CML mice
[3] = test system: K562 myeloid leukemia cells; assay: K562 cell proliferation, trypan blue live cell count; format: cell-based, human
Protocol: The cells are treated with curcumin at 5 different concentrations (20 μM; 40 μM; 60 μM; 80 μM; 100 μM) for 48, 72 and 96 hours. The cells are stained with trypan blue and counted. The total cell number of live cells is shown in the graph in FIG. 27. […] K562 is a human Bcr-Abl positive CML cell line, which was isolated from a CML patient in blast crisis (Koeffler, H. P., and Golde, D. W. 1980. Human myeloid leukemia cell lines: a review. […] This cell line is commonly used for screening compounds to detect anti-proliferative activities of leukemia cells and for the pharmacology and toxicology studies required for IND (Investigational New Drug) application. […] The cells are treated with zileuton at 7 different concentrations (10 μ[…]) for 48, and 72 hours. The cells are stained with trypan blue and counted. The total cell number of live cells following these treatments is shown in the graph in FIG. 28.

[4] = test system: mice with CML induced by BCR-ABL-T315I; assay: Survival of mice with CML induced by BCR-ABL-T315I; format: in vivo; settings: zileuton n=11 vs placebo n=6
[5] = test system: leukemia stem cells (CD34+CD38-); assay: Human CML CD34+CD38- cells in patient bone marrow culture, FACS; format: cell-based; settings: 48 h, untreated 1.4%
Protocol: Bone marrow was isolated from a CML patient. The cells were cultured in serum-free media (SFM: Iscove modified Dulbecco medium (Sigma-Aldrich) supplemented with a serum substitute bovine serum albumin[…][…], BIT9500 from […] Technologies), five growth factors (5GF: cocktail of 20 ng/mL recombinant human IL-3 (rhIL-3), 20 ng/mL rhIL-6, 100 ng/mL rhFlt3-ligand, 100 ng/mL rh stem cell factor, available from […] Technologies)) and zileuton at two doses, 300 μM or 600 μM, for 48 hours. The cells were analyzed by FACS and the percentages of leukemia stem cells (CD34+CD38-) were determined using anti CD34 and anti CD38 antibodies.

white blood cells = assay: Peripheral white blood cell counts of CML mice; format: in vivo; settings: 14 days after bone marrow transplantation
Description: as §2
The white blood cells are collected from the CML induced mice 14 days after bone marrow transplantation.

normal HSCs = assay: FACS of normal HSCs in zileuton-treated mice; format: in vivo
Protocol: as §3, with “performed. […] No suppression of normal HSCs is found in placebo- or zileuton-treated mice receiving wild type donor bone marrow cells transduced with MSCV-IRES-GFP retrovirus.” for “performed.”

[6] = test system: leukemia cells, LSCs, LT-LSC and ST-LSC+MPP; assay: In vitro culture of bone marrow cells of CML mice with curcumin, live cell numbers by FACS; format: cell-based; settings: 20 μM, 6 days, vs buffer control
Protocol: Bone marrow cells are isolated from 6- to 10-week-old C57BL/6 (B6) mice induced with BCR-ABL, for example using the retroviral vector MSCV-IRES-eGFP carrying the p210 BCR-ABL cDNA to produce CML mice. Total bone marrow cells were cultured in vitro in the presence of StemSpan serum-free medium (StemCell Technologies, Vancouver, BC) supplemented with 10 μg/mL heparin (Sigma, St Louis, Mo.), 10 ng/mL mouse SCF, 20 ng/mL mouse TPO, 20 ng/mL mouse IGF-2 (all from R&D Systems, Minneapolis, Minn.), and 10 ng/mL human FGF-1 (Invitrogen, Carlsbad, Calif.). Half of the medium was replaced after 3 days with fresh medium. (Peng et al Blood, 15 Jul. 2007, Vol. 110, No. 2, pp. 678-685; Zhang and Lodish Blood, 1 Jun. 2005, Vol. 105, No. 11, pp. 4314-4320; de Haan et al. Dev Cell 2003; 4:241-251). The cells were cultured for 6 days in the presence or absence of the Alox5 inhibitor, curcumin at (1,7-Bis(4-hydroxy-3-methoxyphenyl)-1,6-heptadiene-3,5-dione; Calbiochem cat. no. 239802) a concentration of 20 μM in vitro (5×10^6 cells/6 cm tissue culture plate) at 37° C. in a 5% CO2 tissue culture incubator. […] Total live cell numbers were measured for leukemia cells, leukemia stem cells, long-term LSC (LT-LSC) and short-term LSCs with multipotent progenitor cells (ST-LSC+MPP). […]

Cc1ccc(NC(=O)c2ccc(CN3CCN(C)CC3)cc2)cc1Nc1nccc(-c2cccnc2)n1 [Imatinib, 4-[(4-methylpiperazin-1-yl)methyl]-N-[4-methyl-3-[(4-pyridin-3-ylpyrimidin-2-yl)amino]-phenyl]-benzamide]
Up-regulation of the Alox5 gene by BCR-ABL in LSCs (Alox5 gene): not abolished; also recorded: not prevented

CC(c1cc2ccccc2s1)N(O)C(N)=O (stereo not shown) [Zileuton, N-[1-(1-benzothien-2-yl)ethyl]-N-hydroxyurea]
Percentage of GFP+Gr-1+ myeloid leukemia cells in the peripheral blood of CML mice ([1]; Day 11): 48.3%
Percentage of GFP+Gr-1+ myeloid leukemia cells in the peripheral blood of CML mice ([1]; Day 14): 49.9%
Percentage of GFP+Gr-1+ myeloid leukemia cells in the peripheral blood of CML mice ([1]; Day 21): 62.9%
Percentage of GFP+Gr-1+ myeloid leukemia cells in the peripheral blood of CML mice ([1]; Day 28): 61.4%
Percentage of GFP+Gr-1+ myeloid leukemia cells in the peripheral blood of CML mice ([1]; Day 35): 39.7%
Percentage of GFP+Gr-1+ myeloid leukemia cells in the peripheral blood of CML mice ([1]; Day 42): 29.4%
Percentage of GFP+Gr-1+ myeloid leukemia cells in the peripheral blood of CML mice ([1]; Day 60): 5.1%
GFP+Gr-1+ myeloid leukemia cells in bone marrow ([1]; bone marrow, during the treatment): drop to low levels
GFP+Gr-1+ cells in peripheral blood over time ([1]; from 11 days to 8 weeks): gradually decrease with time
Plasma level of LTB4 (Alox5): decreased
Plasma level of LTB4 (Alox5; listed as zileuton): reduction
Ratio of percentage of LT-LSCs to percentage of ST-LSCs/MPP cells (LSCs): increased with treatment
Leukemia cell infiltration to the lungs and the spleens [2]: less severe leukemia cell infiltration
Number of live K562 cells ([3]; 10-400 μM, 48 hours): reduces the number of live cells in the 200 μM and 400 μM groups
Number of live K562 cells ([3]; 10-400 μM, 72 hours): shows an effect at all concentrations
Survival of mice with CML induced by BCR-ABL-T315I [4]: prolongs survival
Percentage of leukemia stem cells (CD34+CD38-) ([5]; 300 μM): 1.1%
Percentage of leukemia stem cells (CD34+CD38-) ([5]; 600 μM): 0.9%
White blood cell counts (white blood cells): reduction of white blood cell counts less dramatically than does imatinib treatment
Differentiation of GFP- LT-HSCs in the same animals (normal HSCs; CML mice, 300 mg/kg twice a day): did not lead to blocked differentiation
Numbers of GFP+Lin-c-Kit+Sca-1+ cells in bone marrow or spleens (normal HSCs; mice receiving MSCV-IRES-GFP-transduced wild type bone marrow, day 14 after BMT): does not result in a reduction

COc1cc(C=CC(=O)CC(=O)C=Cc2ccc(O)c(OC)c2)ccc1O [Curcumin, 1,7-Bis(4-hydroxy-3-methoxyphenyl)-1,6-heptadiene-3,5-dione]
Total live cell number of leukemia cells, LSCs, LT-LSC and ST-LSC+MPP [6]: reduced
Number of live K562 cells ([3]; 20-100 μM, 72 or 96 hours): reduces the number of live cells in all groups
Concentration at which an effect on live K562 cell number is shown ([3]; 48 hours): ≥ 40 µM
